Tested on: VERO cells
Assay: VERO cell growth in basal medium with non-animal supplements (mean cell count over subcultures, RGE)
Format: cell-based
Protocol: No attachment factors or coating of the plastic surface are required for the culture of VERO cells. At 3 to 4 days the cells were removed using standard cell culture techniques. The surface of the culture was first washed with Dulbecco's Phosphate Buffered Saline (DPBS) and then 1.0 ml Trypsin-EDTA (Life Technologies, Inc., Rockville, Md.) was added. The digest was allowed to sit on the cell surface for 3 to 5 minutes or until the cells rounded up and began to detach from the surface of the flask. The cells were completely detached by vigorous agitation against the palm of the hand and then 1.5 ml of soybean trypsin inhibitor was added to quickly neutralize enzymatic activity. The cells were counted under the microscope using trypan blue straining solution and new cultures plated at 2.5×10^3 cells per 25 cm^2 flask. Incubation was at 37° C. in 5% CO^2 in air. The cultures were passaged for a total of 4 subcultures and the mean cells per subculture determined from the counts of the final 3 subcultures (P2+P3+P4[…]). Initial studies were designed to formulate a culture medium completely devoid of animal proteins that supports the culture of animal cells. To this end, enzymatic hydrolysates of a variety of non-animal sources were examined as supplements in the basal medium described in Example 1. Hydrolysates of wheat gluten (HYPEP 4301 I, designated below us “Wheat Hydrolysate 1”, and HYPEP 8382, designated below as “Wheat Hydrolysate 2”). soy (HY—SOY) and rice (HYPEP 5115), as well as an extract of baker's yeast (HY-YEST 444) were obtained from Quest International (Norwich, N.Y.) and were formulated into the basal medium of Example 1 at 200 mg/liter. […] To more closely examine their efficacy as supplements for the present media, rice hydrolysates were supplemented into basal media at differing concentrations. These media were then used to examine VERO cell growth as described above. Cell counts were compared to those obtained in basal medium that was unsupplemented (negative control) or to Earle's Modified Eagle's Medium (EMEM) supplemented with 5% fetal bovine serum (FBS; positive control). […] To examine additional sources of non-animal peptides and vitamins as supplements for the present media, extracts of yeast, soy and potato were obtained from Quest International (Norwich, N.Y.) and were supplemented into basal media at differing concentrations. Yeast extract (YE) was also examined as a co-supplement with rice hydrolysate. These media were then used to examine VERO cell growth as described above. Cell counts were compared to those obtained with EMEM supplemented with 5% FBS. […] RGE was calculated as described in Example 2. To more closely examine the use of yeast extract as a supplement in the present media, preparations of YE or an ultrafiltrate of YE (“YEU”) were supplemented into basal media in the presence or absence of 100 mg/liter of rice hydrolysate. These media were then used to examine VERO cell growth as described above. Cell counts were compared to those obtained in EMEM supplemented with 5% FBS (positive control). […] RGE was calculated as described in Example 2. […] These media were then used to examine VERO cell growth as described above. Cell counts were compared to those obtained in basal medium that was unsupplemented (negative control) or to EMEM supplemented with 5% FBS (positive control). […] RGE was calculated as described in Example 2. […] The results in this table represent the mean cells per 25 cm^2 flask in duplicate over 4 subcultures.

EGF: recombinant human EGF (epidermal growth factor)
Mean Cell Count (Table 6, 0.5 mg/L in basal medium): 8.0 × 10^5
RGE (Table 6, 0.5 mg/L, relative to 5% FBS control): 34
Mean Cell Count (Table 6, 1 mg/L in basal medium): 11.4 × 10^5
RGE (Table 6, 1 mg/L, relative to 5% FBS control): 49
RGE (Table 6, 5 mg/L, relative to 5% FBS control): 51
Mean Cell Count (Table 6, 10 mg/L in basal medium): 22.6 × 10^5
Mean Cell Count (Table 7, 5 mg/L): 20.2 × 10^5
RGE (Table 7, 5 mg/L, relative to 5% FBS control): 76
Mean Cell Count (Table 7, 6 mg/L): 19.3 × 10^5
RGE (Table 7, 6 mg/L, relative to 5% FBS control): 73
Mean Cell Count (Table 7, 7 mg/L): 19.6 × 10^5
RGE (Table 7, 7 mg/L, relative to 5% FBS control): 74
Mean Cell Count (Table 7, 8 mg/1.): 21.0 × 10^5
RGE (Table 7, 8 mg/1., relative to 5% FBS control): 79
Mean Cell Count (Table 7, 9 mg/L): 20.7 × 10^5
RGE (Table 7, 9 mg/L, relative to 5% FBS control): 78
Mean Cell Count (Table 7, 10 mg/L): 19.5 × 10^5
RGE (Table 7, 10 mg/L, relative to 5% FBS control): 73
RGE (Table 8, 5 mg/L, as % of 0 mg/L control): 137%
Mean Cell Count (Table 8, 5 mg/L, mean cells per 25 cm^2 flask in duplicate over 4 subcultures): 7.0 × 10^5
RGE (Table 8, 6 mg/L, as % of 0 mg/L control): 118%
Mean Cell Count (Table 8, 6 mg/L, over 4 subcultures): 6.0 × 10^5
RGE (Table 8, 7 mg/L, as % of 0 mg/L control): 139%
Mean Cell Count (Table 8, 7 mg/L, over 4 subcultures): 7.1 × 10^5
RGE (Table 8, 8 mg/L, as % of 0 mg/L control): 143%
Mean Cell Count (Table 8, 8 mg/L, over 4 subcultures): 7.3 × 10^5
RGE (Table 8, 9 mg/L, as % of 0 mg/L control): 145%
Mean Cell Count (Table 8, 9 mg/L, over 4 subcultures): 7.4 × 10^5
RGE (Table 8, 10 mg/L, as % of 0 mg/L control): 133%
Mean Cell Count (Table 8, 10 mg/L, over 4 subcultures): 6.8 × 10^5

— patent publication US20130084640A1, “ANIMAL CELL CULTURE MEDIA COMPRISING NON ANIMAL OR PLANT DERIVED NUTRIENTS” (LIFE TECHNOLOGIES CORPORATION, priority 1999, published 2013)
